Test results taken from patent publication US8747890B2 (priority 2009, dated 2014).

Key:
[1] = human, whole blood, iv, 9 mg/m2
[2] = Extrapolation of blood Cmax to an 80 kg human after intravenous infusion; conditions: 440 mg/M^2 one hour infusion

- Cmax [1]: 3400 ng/mL
- Cmax extrapolated to humans [2]: 160000 ng/mL
Structure (SMILES): COc1cc(C=CC(=O)CC(=O)C=Cc2ccc(O)c(OC)c2)ccc1O [curcumin, 1,7-bis(4-hydroxy-3-methoxyphenyl)-1,6-heptadiene-3,5-dione]
